From patent US9061984B2 (University of Louisville Research Foundation, Inc., priority 2008, dated 2015)
Converted amounts (≈) assume the structure as drawn. Read-outs that look alike come from different tables or passages of the source.

Assays:
3T3 cells = experiment: Cell growth inhibition bioassay (sulforhodamine B); format: cell-based, mouse; details: 48 h, SRB; for GI50: Mus musculus, NIH3T3, read-out: GI50 in indicated cell line: 3T3
How it was run: (§1)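 Cells were exposed to compound alongside matched solvent controls, then stained with sulforhodamine B. Percent growth inhibition was calculated from dye absorbance against the control.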

DU145 cells = experiment: Cell growth inhibition bioassay (sulforhodamine B); format: cell-based, human; details: 48 h, SRB; for GI50: Homo sapiens, DU-145, read-out: GI50 in indicated cell line: DU145
How it was run: as §1

H460 cells = experiment: Cell growth inhibition bioassay (sulforhodamine B); format: cell-based, human; details: 48 h, SRB; for GI50: Homo sapiens, NCI-H460, read-out: GI50 in indicated cell line: H460
How it was run: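 SRB colorimetric read-out; % growth inhibition vs solvent control. Human lines: MCF-7 (breast adenocarcinoma), DU145 (prostate carcinoma), PC3 (prostate adenocarcinoma), H460 (large cell lung cancer).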

HT-29 cells = experiment: Cell growth inhibition bioassay (sulforhodamine B); format: cell-based, human; details: 48 h, SRB; for GI50: Homo sapiens, HT-29, read-out: GI50 in indicated cell line: HT-29
How it was run: as §1

K562 cells = experiment: Cell growth inhibition bioassay (sulforhodamine B); format: cell-based, human; details: 48 h, SRB; for GI50: Homo sapiens, K562, read-out: GI50 in indicated cell line: K562
How it was run: as §1

M-14 cells = experiment: Cell growth inhibition bioassay (sulforhodamine B); format: cell-based, human; details: 48 h, SRB; for GI50: Homo sapiens, M14, read-out: GI50 in indicated cell line: M-14
How it was run: as §1

MCF-7 cells = experiment: Cell growth inhibition bioassay (sulforhodamine B); format: cell-based, human; details: 48 h, SRB; for GI50: Homo sapiens, MCF7, read-out: GI50 in indicated cell line: MCF-7
How it was run: as §1

VERO cells [1] = experiment: Cell growth inhibition bioassay (sulforhodamine B); format: cell-based, African Green Monkey; details: 48 h, SRB; for GI50: Chlorocebus sabaeus, Vero, read-out: GI50 in indicated cell line: VERO
How it was run: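 Cytotoxicity is read by sulforhodamine B colorimetry following the Skehan protocol; values are growth inhibition relative to solvent-only wells.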

[2] = system: Trypanosoma cruzi (Tulahuen C4); experiment: In vitro anti-T. cruzi activity (β-galactosidase CPRG colorimetric assay in VERO monolayer); format: cell-based; details: for Selectivity Index Lab B: IC50, VERO/IC50, T. cruzi; for IC50 / inhibition at 10 µg/mL: Trypanosoma cruzi, TULAHUEN, Vero; for inhibition at 10 µg/mL: 120 h, 10 μg/mL of each compound, 120 hours, read-out: T. cruzi Inhib. (%)
M. tuberculosis H37Rv = experiment: Conventional aerobic (MABA) culture assay, luminescence MIC; format: cell-based, Mycobacterium tuberculosis; details: for MIC: Mycobacterium tuberculosis, 168 h
[3] = Toxicity to peritoneal macrophages (Trypan Blue count); format: cell-based, BALB/C mouse; details: BALB/C, mouse, Cytotoxicity Macrophages IC50
[4] = system: axenic amastigotes of L. amazonensis (strain MHOM/BR/76/LTB-012); details: Table 8b
[5] = system: axenic amastigotes of L. amazonensis (strain MHOM/BR/76/LTB-012); experiment: microbe, parasite or virus in culture; details: Leishmania amazonensis
[6] = Cytotoxicity on VERO cells (MTT), anti-T. cruzi study; details: African green monkey
L. braziliensis PER006 = experiment: Activity against macrophages infected with Leishmania amastigotes; details: Leishmania braziliensis, Macrophage, read-out: IC50 L. braziliensis PER006
Experimental: (§2) A cloned line of Leishmania amazonensis(strain MHOM/BR/76/LTB-012) was used in all experiments. Axenically grown amastigote forms of L. amazonensis were maintained by weekly subpassages in MAA/20 medium (Sereno and Lemesre, Antimicrobial Agents and Chemotherapy 41, 972-976 (1997)) at 32±1° C. in 25 cm^2 tissue culture flasks. L. peruviana (strain MHOM/PE/LCA08) and L. braziliensis (strainMHOM/PE/PER006) were maintained in the promastigote stage in a biphasic medium (blood agar with 0.89% NaCl, pH 7.4) at 24° C., with sub-passage every 3 to 4 days. Promastigotes (5×10^6 parasites) were then transferred to 25 cm2 tissue culture flasks containing 5 ml of M199 medium supplemented with 10% foetal bovine serum (FBS), pH 7.4. After 4 days, exponential phase promastigotes were centrifuged for 10 minutes at 1500 g and 4° C. The supernatant was discarded and replaced by fresh M199 medium supplemented with 20% FBS, pH 5.5. Axenic amastigotes transformation was then induced by increasing the temperature to 34° C. and incubating for 96 h (Teixeira et al., Parasitology Research 88, 963-968 (2002)).
(§3) Extracted cells were immediately deposited on sterile 4×4 mm cover glasses and placed in each well of a 96-well plate. Plates were incubated for 24 h at 37° C., 5% CO2 to allow cell adhesion (Castillo et al, Journal of Ethnopharmacology 112, 410-414 (2007)). Pre-warmed complete M199 medium was used twice to remove non-adherent cells. A neutral red method (Fautz et al., Mutation Research 253, 173-179 (1991)) was employed to determine cell concentration. Approximately 7×10^4 viable cells were deposited in each well for adhesion.
(§4) Infection of macrophages by amastigotes was determined as follows. […] Twelve hours after infection, a solution of the compounds to be tested was added to the cultures at various concentrations and maintained at 37° C. in 5% CO2 for a further forty-eight hours more. The plates were fixed with methanol and stained with 10% Giemsa stain. The percentage of infected macrophages was determined microscopically at 100 times magnification. The number of intracellular amastigotes was determined in 300 cells. Following Delorenzi et al. Antimicrobial Agents and Chemotherapy, 45, 1349-1354 (2001)) the percentage of infection rate (% IR) of each culture was calculated as follows: % IR=100−(infection rate of the treated culture/infection rate of the untreated culture)×100.
(§5) All experiments were performed in triplicate. ANOVA was used to test for statistical significance of differences (Epi-Info, Statview student program). The total parasite burden was calculated as a mean number of amastigotes per cells multiplied by the number of infected macrophages.

L. peruviana LCA08 = experiment: as above; details: Leishmania peruviana, Macrophage, read-out: IC50 L. peruviana LCA08
Experimental: as §2, §3, §4, §5

[7] = Cytotoxicity VERO cell (Table 6); details: African green monkey, VERO cells
peritoneal macrophages = experiment: Toxicity to peritoneal macrophages (Trypan Blue count); format: cell-based, BALB/C mouse
VERO cells [8] = experiment: Cytotoxicity on VERO cells (MTT), anti-T. cruzi study; details: for IC50: Chlorocebus sabaeus, Vero
L. amazonensis = details: intralesional, compounds 5 mg/kg/day, Glucantime 33 mg Sb(v)/kg/day; for Mean lesion wt (mg) (±SD): BALB/c mice n=10; for % Variation of lesion wt / % reduction of parasite burden in the lesion: vs control
[9] = Lab B, read-out: T. cruzi IC50 Lab B
[10] = VERO cells, Cytotoxicity VERO Lab B, Lab B
[11] = Table 2, read-out: IC50 - T. cruzi
[12] = Table 3, read-out: IC50 T. cruzi
[13] = Mus musculus, Peritoneal macrophage, 48 h, Table 7, read-out: IC50 Macrophage
[14] = 72 h, read-out: IC50 L. amazonensis
[15] = VERO cells, IC50 - VERO Cytotoxicity, Table 2

## Brc1ccc(/C=N\Nc2ncnc3sc4c(c23)CCCC4)cc1 [II-30]
3T3 cells
  GI50: 6.8 µg/mL (≈ 17.6 µM)
DU145 cells
  GI50: 5.6 µg/mL (≈ 14.5 µM)
H460 cells
  GI50: 4.1 µg/mL (≈ 10.6 µM)
HT-29 cells
  GI50: 4.8 µg/mL (≈ 12.4 µM)
K562 cells
  GI50: 2.2 µg/mL (≈ 5.68 µM)
M-14 cells
  GI50: 13 µg/mL (≈ 33.6 µM)
MCF-7 cells
  GI50: 2.3 µg/mL (≈ 5.94 µM)
VERO cells [1]
  GI50: 2.8 µg/mL (≈ 7.23 µM)
[2]; Lab B
  Selectivity Index Lab B: 0.8
[2]; Lab A, read-out: T. cruzi IC50 Lab A
  IC50: 1.1 µg/mL
[2]; [9]
  IC50: 7.9 µg/mL
M. tuberculosis H37Rv; aerobic, 7 days, H37Rv
  MIC: > 100 µg/mL
[3]
  IC50 at 48 h: 3 µM
[4]
  Selectivity Index: 8.8
[5]; read-out: L. amazonensis IC50
  IC50: 0.3 µM
[6]; [10]
  IC50: 6 µg/mL (≈ 15.5 µM)
L. braziliensis PER006
  IC50: > 0.5 µg/mL
L. peruviana LCA08
  IC50: > 0.5 µg/mL

## Clc1ccccc1/C=N\Nc1ncnc2sc3c(c12)CCCC3 [II-29]
3T3 cells
  GI50: 30.2 µg/mL (≈ 88.1 µM)
DU145 cells
  GI50: 26.7 µg/mL (≈ 77.9 µM)
H460 cells
  GI50: 21.6 µg/mL (≈ 63 µM)
HT-29 cells
  GI50: 19.4 µg/mL (≈ 56.6 µM)
K562 cells
  GI50: 6.8 µg/mL (≈ 19.8 µM)
M-14 cells
  GI50: > 62.5 µg/mL
MCF-7 cells
  GI50: 7.5 µg/mL (≈ 21.9 µM)
VERO cells [1]
  GI50: 9.9 µg/mL (≈ 28.9 µM)
[2]; Lab B
  Selectivity Index Lab B: 0.7
[2]; [9]
  IC50: 7.3 µg/mL
M. tuberculosis H37Rv; aerobic, 7 days, H37Rv
  MIC: 42.6 µg/mL (≈ 124 µM)
M. tuberculosis H37Rv; VERO vs MABA MIC
  Selectivity Index H37Rv: 0.7
[3]
  IC50 at 48 h: 3.8 µM
[4]
  Selectivity Index: 5.0
[7]
  IC50: 29.3 µg/mL (≈ 85.5 µM)
[5]; read-out: L. amazonensis IC50
  IC50: 0.8 µM
[6]; [10]
  IC50: 5 µg/mL (≈ 14.6 µM)

## C=CCOc1cc(OC)c(C(=O)/C=C/c2cccc(OC)c2)c(OCC=C)c1 [Compound I-11, (2E)-1-[2-Methoxy-4,6-bis(2-propenyloxy)phenyl]-3-(3-methoxyphenyl)-2-propen-1-one]
[2]
  inhibition at 10 µg/mL: 72.4%
[2]; [11]
  IC50: 5.37 µg/mL
[2]; [12]
  IC50: 14.2 µM
Peritoneal macrophages; [13]
  IC50: 13.1 µM
[5]; [14]
  IC50: 8.7 µM
[6]; [15]
  IC50: 54 µg/mL (≈ 142 µM)
VERO cells [8]; read-out: IC50 VERO, Table 3
  IC50: 142 µM

## Cc1ccc(C=NNc2ncnc3sc4c(c23)CCCC4)cc1 [II-05]
3T3 cells
  GI50 in indicated cell line: 3T3: 12.1 µg/mL (≈ 37.5 µM)
DU145 cells
  GI50 in indicated cell line: DU145: >62.5 µg/mL
H460 cells
  GI50 in indicated cell line: H460: 42.9 µg/mL (≈ 133 µM)
HT-29 cells
  GI50 in indicated cell line: HT-29: >62.5 µg/mL
K562 cells
  GI50 in indicated cell line: K562: 2.3 µg/mL (≈ 7.13 µM)
M-14 cells
  GI50 in indicated cell line: M-14: >62.5 µg/mL
MCF-7 cells
  GI50 in indicated cell line: MCF-7: 4.2 µg/mL (≈ 13 µM)
VERO cells [1]
  GI50 in indicated cell line: VERO: 10.0 µg/mL (≈ 31 µM)
M. tuberculosis H37Rv; aerobic, 7 days, H37Rv
  MIC MABA: >100 µg/mL
Peritoneal macrophages
  IC50: 6.3 µM
[4]; read-out: L. amazonensis IC50
  IC50: 13.7 µM
VERO cells [8]; Lab B
  Cytotoxicity VERO Lab B: 11.0

## C=CCOc1cc(OC)c(C(=O)/C=C/c2ccccc2Br)c(OCC=C)c1 [Compound I-16]
[2]
  inhibition at 10 µg/mL: 63.4%
[2]; [11]
  IC50: 5.95 µg/mL
[2]; [12]
  IC50: 13.9 µM
Peritoneal macrophages; Mus musculus, Peritoneal macrophage, 48 h, read-out: IC50 Macrophage
  IC50: 5.4 µM
[5]; [14]
  IC50: 7.9 µM
[6]
  IC50: 6 µg/mL (≈ 14 µM)
VERO cells [8]; read-out: IC50 VERO
  IC50: 13.9 µM

## C=CCOc1cc(OC)c(C(=O)/C=C/c2ccc([N+](=O)[O-])cc2)c(OCC=C)c1 [Compound I-13, (2E)-1-[2-Methoxy-4,6-bis(2-propenyloxy)phenyl]-3-(4-nitrophenyl)-2-propen-1-one]
[2]
  inhibition at 10 µg/mL: 68.6%
[2]; [11]
  IC50: 1.62 µg/mL
[2]; [12]
  IC50: 4.1 µM
Peritoneal macrophages; [13]
  IC50: 13.2 µM
[5]; [14]
  IC50: 8.3 µM
[6]; [15]
  IC50: 5 µg/mL (≈ 12.6 µM)
VERO cells [8]; read-out: IC50 VERO, Table 3
  IC50: 12.6 µM

## C=CCOc1cc(OC)c(C(=O)/C=C/c2cc(OC)c(OC)c(OC)c2)c(OCC=C)c1 [Compound I-20, (2E)-1-[2-Methoxy-4,6-bis(2-propenyloxy)phenyl]-3-(3,4,5-trimethoxyphenyl)-2-propen-1-one]
[2]
  inhibition at 10 µg/mL: 76.1%
[2]; [11]
  IC50: 1.5 µg/mL
[2]; [12]
  IC50: 3.4 µM
Peritoneal macrophages; [13]
  IC50: 12 µM
[5]; [14]
  IC50: 8.2 µM
[6]; [15]
  IC50: 18 µg/mL (≈ 40.9 µM)
VERO cells [8]; read-out: IC50 VERO, Table 3
  IC50: 40.9 µM

## C=CCOc1cc(OC)c(C(=O)/C=C/c2ccccc2)c(OCC=C)c1 [Compound I-08, (2E)-1-[2-Methoxy-4,6-bis(2-propenyloxy)phenyl]-3-(phenyl)-2-propen-1-one]
[2]
  inhibition at 10 µg/mL: 71.5%
[2]; [11]
  IC50: 6.7 µg/mL
[2]; [12]
  IC50: 17.1 µM
Peritoneal macrophages; [13]
  IC50: 14.8 µM
[5]; [14]
  IC50: 9.4 µM
[6]; [15]
  IC50: 6 µg/mL (≈ 17.1 µM)
VERO cells [8]; read-out: IC50 VERO
  IC50: 17.1 µM

## CCc1ccc(/C=N\Nc2ncnc3sc4c(c23)CCCC4)cc1 [II-06]
3T3 cells
  GI50: 12.1 µg/mL (≈ 36 µM)
DU145 cells
  GI50: 19.8 µg/mL (≈ 58.8 µM)
H460 cells
  GI50: 9.5 µg/mL (≈ 28.2 µM)
HT-29 cells
  GI50: 10.8 µg/mL (≈ 32.1 µM)
K562 cells
  GI50: 3.7 µg/mL (≈ 11 µM)
M-14 cells
  GI50: 64 µg/mL (≈ 190 µM)
MCF-7 cells
  GI50: 6.2 µg/mL (≈ 18.4 µM)
VERO cells [1]
  GI50: 6.6 µg/mL (≈ 19.6 µM)
M. tuberculosis H37Rv; aerobic, 7 days, H37Rv
  MIC: > 100 µg/mL
[3]
  IC50 at 48 h: 50.9 µM
[4]
  Selectivity Index: 9.6
L. amazonensis; after 4 weeks treatment
  Mean lesion size (mm): 3.0 mm
  Mean parasite quantification (per 10^6) in lesion per mg (±SD): 1.19 (±0.27) amastigotes (×10^6)/mg
  Mean lesion wt (mg) (±SD): 70.9 (±9.9) mg
  % Variation of lesion wt: −17%
  % reduction of parasite burden in the lesion: 30%
L. amazonensis; after 7 weeks treatment
  Mean lesion size (mm): 4.7 mm
  Mean parasite quantification (per 10^6) in lesion per mg (±SD): 1.46 (±0.30) amastigotes (×10^6)/mg
  Mean lesion wt (mg) (±SD): 78.4 (±1.6) mg
  % Variation of lesion wt: 12%
  % reduction of parasite burden in the lesion: 2%
[5]; read-out: L. amazonensis IC50
  IC50: 5.3 µM
[6]; [10]
  IC50: 4 µg/mL (≈ 11.9 µM)
L. braziliensis PER006
  IC50: 3.5 µg/mL (≈ 10.4 µM)
L. peruviana LCA08
  IC50: 3.2 µg/mL (≈ 9.51 µM)

## C=CCOc1cc(OC)c(C(=O)/C=C/c2ccccc2F)c(OCC=C)c1 [Compound I-15, (2E)-3-(2-Fluorophenyl)-1-[2-methoxy-4,6-bis(2-propenyloxy)phenyl]-2-propen-1-one]
[2]
  inhibition at 10 µg/mL: 66.5%
[2]; [11]
  IC50: 2.29 µg/mL
[2]; [12]
  IC50: 6.2 µM
Peritoneal macrophages; [13]
  IC50: 13.3 µM
[5]; [14]
  IC50: 9.5 µM
[6]; [15]
  IC50: 6 µg/mL (≈ 16.3 µM)
VERO cells [8]; read-out: IC50 VERO, Table 3
  IC50: 16.3 µM
